Reference: US10934255B2, “Nrf and HIF activators/HDAC inhibitors and therapeutic methods using the same” (THE BOARD OF TRUSTEES OF THE UNIVERSITY OF ILLINOIS, priority 2017, dated 2021)
Read-outs that look alike come from different tables or passages of the source.

Molecular target: T1, Human HDAC6 (Homo sapiens, UniProt Q9UBN7)
T1 construct: Full length with N-terminal GST tag, MW=159 kDa; GST (N); host or cells: Sf9 insect cells (baculovirus)
T1 sequence (Q9UBN7 1-1215): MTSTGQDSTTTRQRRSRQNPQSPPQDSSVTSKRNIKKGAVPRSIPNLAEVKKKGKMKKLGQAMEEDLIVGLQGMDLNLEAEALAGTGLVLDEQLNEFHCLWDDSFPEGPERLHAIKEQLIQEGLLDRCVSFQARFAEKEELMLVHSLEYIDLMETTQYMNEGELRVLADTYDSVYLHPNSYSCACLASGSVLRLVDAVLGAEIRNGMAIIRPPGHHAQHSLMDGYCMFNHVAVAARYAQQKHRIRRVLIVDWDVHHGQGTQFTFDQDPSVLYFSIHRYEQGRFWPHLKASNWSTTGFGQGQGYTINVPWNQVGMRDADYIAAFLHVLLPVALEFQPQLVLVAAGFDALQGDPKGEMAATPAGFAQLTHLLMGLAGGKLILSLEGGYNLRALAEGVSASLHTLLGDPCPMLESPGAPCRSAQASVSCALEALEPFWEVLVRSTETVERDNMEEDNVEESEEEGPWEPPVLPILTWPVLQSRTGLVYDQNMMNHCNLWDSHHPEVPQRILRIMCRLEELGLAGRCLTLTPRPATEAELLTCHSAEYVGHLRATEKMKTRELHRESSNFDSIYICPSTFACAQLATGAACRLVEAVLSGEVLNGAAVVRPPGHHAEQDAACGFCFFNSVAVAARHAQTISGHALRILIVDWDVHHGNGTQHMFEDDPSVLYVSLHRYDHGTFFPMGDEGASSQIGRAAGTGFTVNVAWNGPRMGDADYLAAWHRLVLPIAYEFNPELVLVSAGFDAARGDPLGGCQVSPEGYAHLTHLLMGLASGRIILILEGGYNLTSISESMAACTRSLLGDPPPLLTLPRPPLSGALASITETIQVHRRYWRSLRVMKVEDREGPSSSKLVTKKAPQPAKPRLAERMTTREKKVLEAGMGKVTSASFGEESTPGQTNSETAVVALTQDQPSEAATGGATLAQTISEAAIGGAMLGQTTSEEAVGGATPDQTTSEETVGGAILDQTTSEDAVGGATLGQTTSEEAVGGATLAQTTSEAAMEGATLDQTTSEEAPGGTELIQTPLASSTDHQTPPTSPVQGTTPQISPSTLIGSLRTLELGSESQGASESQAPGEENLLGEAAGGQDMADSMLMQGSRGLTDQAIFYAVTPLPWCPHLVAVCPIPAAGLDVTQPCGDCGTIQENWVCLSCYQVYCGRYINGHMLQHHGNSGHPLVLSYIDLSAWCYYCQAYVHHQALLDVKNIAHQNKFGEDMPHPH
Test: HDAC6 inhibition assay (fluorogenic p53 peptide substrate)
Type: biochemical
Experimental: The HDAC1, 2, 4, 5, 6, 7, 8, 9, 10, and 11 assays used isolated recombinant human protein; HDAC3/NcoR2 complex was used for the HDAC3 assay. Substrate for HDAC1, 2, 3, 6, 10, and 11 assays is a fluorogenic peptide from p53 residues 379-382 (RHKKAc); substrate for HDAC8 is fluorogenic diacyl peptide based on residues 379-382 of p53 (RHKAcKAc). Acetyl-Lys(trifluoroacetyl)-AMC substrate was used for HDAC4, 5, 7, and 9 assays. Compounds were dissolved in DMSO and tested in 10-dose IC50 mode with 3-fold serial dilution starting at 30 μM. Control Compound Trichostatin A (TSA) was tested in a 10-dose IC50 with 3-fold serial dilution starting at 5 μM. IC50 values were extracted by curve-fitting the dose/response slopes. Assays were performed in duplicate and IC50 values are an average of data from both experiments.
Human HDAC6 (GenBank Accession No. BC069243): Full length with N-terminal GST tag, MW=159 kDa, expressed by baculovirus expression system in Sf9 cells. Enzyme is in 50 mM Tris-HCl, pH 8.0, 138 mM NaCl, 20 mM glutathione, and 10% glycerol, and stable for >6 months at −80° C. Purity is >90% by SDS-PAGE. Specific Activity is 50 U/μg, where one U=1 pmol/min under assay condition of 25 mM Tris/Cl, pH8.0, 137 mM NaCl, 2.7 mM KCl, 1 mM MgCl2, and 0.1 mg/ml BSA, 30 μM HDAC substrate, and 5 ng/μl HDAC6, incubation for 60 min at 30° C.
Substrate for HDAC1 and HDAC6: Acetylated peptide substrate for HDAC, based on residues 379-382 of p53 (Arg-His-Lys-Lys(Ac)), a site of regulatory acetylation by the p300 and CBP acetyltransferases (lysines 381, 382)1-6, is the best for HDAC from among a panel of substrates patterned on p53, histone H3 and histone H4 acetylation sites7.
Reaction Buffer: 50 mM Tris-HCl, pH 8.0, 137 mM NaCl, 2.7 mM KCl, 1 mM MgCl2, 1 mg/ml BSA.
HDAC6: 12.6 nM HDAC6 and 50 μM HDAC substrate are in the reaction buffer and 1% DMSO final. Incubate for 2 hours at 30° C.
All IC50 values are automatically calculated using the GraphPad Prism version 5 and Equation of Sigmoidal dose-response (variable slope): Y=Bottom+(Top−Bottom)/(1+10^((Log EC50−X)*HillSlope)), where X is the logarithm of concentration, Y is the response, Y starts at Bottom and goes to Top with a sigmoid shape. In most cases, “Bottom” is set 0, and “Top” is set “less than 120%”. This is identical to the “four parameter logistic equation”. IC50 curves also are drawn using the GraphPad Prism, and IC50 values and Hill slopes are provided.
HDAC Activity Assays: HDAC assay is performed using fluorescently-labeled acetylated substrate, which comprises an acetylated lysine side chain. After incubation with HDAC, deacetylation of the substrate sensitizes the substrate such that, in a second step, treatment with the detection enzyme produces a fluorophore. HDACs 1 and 6 were expressed as full length fusion proteins. Purified proteins were incubated with 50 μM fluorescently-labeled acetylated peptide substrate and test compound for 2 hours at RT in HDAC assay buffer containing 50 mM Tris-HCl (pH 8.0), 137 mM NaCl, 2.7 mM KCl, 1 mM MgCl2, 1% DMSO, and 1% BSA.
Reactions were terminated by the addition of the Developer after 2 hours, and the development of fluorescence signal, which was relative to the amount of deacetylated peptide, was monitored by time-course measurement of EnVision (PerkinElmer). The HDAC activity was estimated from the slope of time-course measurement of the fluorescence intensity. The slope of no-enzyme control (substrate alone) was served as background, and % Enzyme activity was calculated using background-subtracted slope of no inhibitor control (DMSO) as 100% activity.

[1] = Table 1, performed by Reaction Biology Corporation, read-out: HDAC isoform IC50 (nM) 6
[2] = Table 2 isoform selectivity, read-out: HDAC Inhibition (IC50 uM) isoform 6

Structure (SMILES) | IC50 [1] [nM] | IC50 [2] [nM]
Cn1c(NCc2ccc(C(=O)NO)cc2)nc2ccccc21 [II-ING-13, N-Hydroxy-4-(((1-methyl-1H-benzo[d]imidazol-2-yl)amino)methyl)benzamide] | 11 | 9
O=C(NO)c1ccc(CN2C(=O)C(F)(F)c3ccccc32)cc1 [II-ING-66, 4-((3,3-Difluoro-2-oxoindolin-1-yl)methyl)-N-hydroxybenzamide] | 4.1 | –
O=C(NO)c1ccc(CN2CCc3ccc(Cl)cc32)cc1 [II-ING-6, 4-((6-Chloroindolin-1-yl)methyl)-N-hydroxybenzamide] | 11.5 | 9
O=C(NO)c1ccc(CN2CCc3ccc(F)cc32)cc1 [II-ING-41, 4-((6-Fluoroindolin-1-yl)methyl)-N-hydroxybenzamide] | 16.7 | 4
O=C(NO)c1ccc(CN2CCc3cc(Cl)ccc32)cc1 [II-ING-39, 4-((5-Chloroindolin-1-yl)methyl)-N-hydroxybenzamide] | 21.5 | –

More lines, main results first:

IC50 [1] [nM] | Structure (SMILES) | IC50 [2] [nM]
26.8 | O=C(NO)c1ccc(CN2CCc3ccccc32)cc1 [II-ING-44, N-Hydroxy-4-(indolin-1-ylmethyl)benzamide] | –
13.1 | O=C(NO)c1ccc(CN2CCc3cc(F)ccc32)cc1 [II-ING-42, 4-((5-Fluoroindolin-1-yl)methyl)-N-hydroxybenzamide] | –
11.5 | COc1ccc2c(c1)CCN2Cc1ccc(C(=O)NO)cc1 [II-ING-49, N-Hydroxy-4-((5-methoxyindolin-1-yl)methyl)benzamide] | –
